Reference: US20240182445A1 (ONO PHARMACEUTICAL CO., LTD., priority 2019, published 2024)
pIC50: −log10 of the molar value.

biological target: T1, human TREK-1 (Homo sapiens, UniProt O95069); test: TREK-1 Thallium (Tl+) flux assay, Method 1; type: cell-based; conditions: TREK-1 Thallium (Tl+) flux assay; no *^12 (Method 2) mark on these rows
T1 construct: expressed in transfected cells
T1 sequence (O95069 1-426): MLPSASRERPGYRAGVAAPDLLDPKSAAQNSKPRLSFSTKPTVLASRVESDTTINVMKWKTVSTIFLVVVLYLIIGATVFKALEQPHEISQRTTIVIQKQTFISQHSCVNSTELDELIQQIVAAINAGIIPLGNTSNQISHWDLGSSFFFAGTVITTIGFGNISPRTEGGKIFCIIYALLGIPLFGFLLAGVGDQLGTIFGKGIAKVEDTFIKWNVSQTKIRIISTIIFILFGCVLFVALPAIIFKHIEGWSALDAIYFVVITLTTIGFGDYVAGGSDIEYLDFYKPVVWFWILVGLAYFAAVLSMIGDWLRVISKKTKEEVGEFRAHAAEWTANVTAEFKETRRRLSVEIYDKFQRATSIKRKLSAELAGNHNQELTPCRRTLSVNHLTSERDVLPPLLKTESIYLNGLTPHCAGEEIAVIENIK
Procedure, shortened: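 CHO-K1 cells stably expressing human TREK-1, loaded with Thallos dye, received compound or 0.3% DMSO vehicle for 10 min before thallium stimulus buffer. ΔRatio is fluorescence at 25 s after thallium addition over mean pre-addition fluorescence; % inhibition calculated from it.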

| Compound | pIC50 |
| --- | --- |
| COCCn1ncc(Cl)c1C(=O)Nc1ncc(C#Cc2ccccc2)cc1C [Compound 369, 4-chloro-1-(2-methoxyethyl)-N-(3-methyl-5-(phenylethynyl)pyridin-2-yl)-1H-pyrazole-5-carboxamide] | 6.02 |
| O=C(Nc1ncc(C#Cc2ccc(F)cc2)cc1F)c1c(Cl)cnn1[C@@H]1CCN(C(=O)C2COCCO2)C[C@H]1F (stereo partly drawn) [Compound 235, 1-((3R,4R)-1-(1,4-dioxane-2-carbonyl)-3-fluoropiperidin-4-yl)-4-chloro-N-(3-fluoro-5-((4-fluorophenyl)ethynyl)pyridin-2-yl)-1H-pyrazole-5-carboxamide] | 6.44 |
| Cc1cc(C#Cc2ccccc2)cc(F)c1NC(=O)c1c(Cl)cnn1C[C@H]1CCOC1 [Compound 219, (R)-4-chloro-N-(2-fluoro-6-methyl-4-(phenylethynyl)phenyl)-1-((tetrahydrofuran-3-yl)methyl)-1H-pyrazole-5-carboxamide] | 6.47 |
| Cc1cc(C#Cc2ccc(F)cc2)cnc1NC(=O)c1c(Cl)cnn1C[C@H]1CCCN(C(=O)OC(C)(C)C)C1 [Compound 368, tert-butyl (S)-3-((4-chloro-5-((5-((4-fluorophenyl)ethynyl)-3-methylpyridin-2-yl)carbamoyl)-1H-pyrazol-1-yl)methyl)piperidine-1-carboxylate] | 6.03 |
| CC(=O)N1CCC2(CC(n3ncc(Cl)c3C(=O)Nc3ncc(C#Cc4ccc(F)cc4)cc3C)C2)C1 (stereo not drawn) [Compound 312, 1-(6-acetyl-6-azaspiro[3.4]octan-2-yl)-4-chloro-N-{5-[(4-fluorophenyl)ethynyl]-3-methylpyridin-2-yl}-1H-pyrazole-5-carboxamide] | 6.23 |
| CC(C)(C)OC(=O)N1CCC(n2ncc(Cl)c2C(=O)Nc2ncc(C#Cc3ccccc3)cc2F)CC1 [Compound 255, tert-butyl 4-(4-chloro-5-((3-fluoro-5-(phenylethynyl)pyridin-2-yl)carbamoyl)-1H-pyrazol-1-yl)piperidine-1-carboxylate] | 6.38 |

Now from value to compound:

| pIC50 | Compound |
| --- | --- |
| 6.32 | Cc1cc(C#Cc2ccccc2)cnc1NC(=O)c1c(Cl)cnn1C1CCCN(C(=O)OC(C)(C)C)CC1 (stereo not drawn) [Compound 277, tert-butyl 4-(4-chloro-5-((3-methyl-5-(phenylethynyl)pyridin-2-yl)carbamoyl)-1H-pyrazol-1-yl)azepane-1-carboxylate] |
| 6.04 | 4-chloro-1-[(2s,4r)-6-(cyclopropanecarbonyl)-6-azaspiro[3.4]octan-2-yl]-N-{5-[(4-fluorophenyl)ethynyl]-3-methylpyridin-2-yl}-1H-pyrazole-5-carboxamide or 4-chloro-1-[(2r,4s)-6-(cyclopropanecarbonyl)-6-azaspiro[3.4]octan-2-yl]-N-{5-[(4-fluorophenyl)ethynyl]-3-methylpyridin-2-yl}-1H-pyrazole-5-carboxamide [Compound 362] |
| 6.31 | Cc1cc(C#Cc2ccc(F)cc2)cnc1NC(=O)c1c(Cl)cnn1CC1CCN(C(=O)C(C)C)CC1C (stereo not drawn) [Compound 284, 4-chloro-N-(5-((4-fluorophenyl)ethynyl)-3-methylpyridin-2-yl)-1-((1-isobutyryl-3-methylpiperidin-4-yl)methyl)-1H-pyrazole-5-carboxamide] |

same assay, conditions: TREK-1 Thallium (Tl+) flux assay; values without footnote *12 are Method 1

| Compound | pIC50 |
| --- | --- |
| O=C(Nc1ncc(C#Cc2cccs2)cc1F)c1c(Cl)cnn1CC1CCOCC1 [Compound 69, 4-chloro-N-(3-fluoro-5-(thiophen-2-ylethynyl)pyridin-2-yl)-1-((tetrahydro-2H-pyran-4-yl)methyl)-1H-pyrazole-5-carboxamide] | 6.80 |
| CCNC(=O)N1CCC(n2ncc(Cl)c2C(=O)Nc2ncc(C#Cc3ccccc3)cc2C)CC1 [Compound 90, 4-(4-chloro-5-((3-methyl-5-(phenylethynyl)pyridin-2-yl)carbamoyl)-1H-pyrazol-1-yl)-N-ethylpiperidine-1-carboxamide] | 6.74 |
| CC(=O)N1CCC(n2ncc(Cl)c2C(=O)Nc2ncc(C#Cc3cccc(F)c3)cc2C)CC1C (stereo not drawn) [Compound 72, 1-(1-acetyl-2-methylpiperidin-4-yl)-4-chloro-N-(5-((3-fluorophenyl)ethynyl)-3-methylpyridin-2-yl)-1H-pyrazole-5-carboxamide] | 6.80 |
